Measured values taken from patent US20160235708A1, “TOPICAL PIGMENTORY COMPOSITION” (priority 2013, published 2016).

Tests used:
[1] = tested on: normal skin surrounding the vitiligo lesion; experiment: Topical psoralen / PUVA therapy of vitiligo lesions: skin reaction around the lesion; type: in vivo
Excerpt: FIG. 1 A depicts hyper pigmentation surrounding vitiligo lesion following topical Psoralen therapy

vitiligo = details: monotherapy without ultra violet exposure; personal observation of N Ostovari; cited from earlier work

COc1c2occc2cc2ccc(=O)oc12 [8 methoxypsoralen, 9-methoxy-7H-furo[3,2-g][1]-benzopyran-7-one]
Pigmentory change surrounding the vitiligo lesion (FIG. 1A) ([1]; following topical use): hyperpigmentation
Skin reaction surrounding the vitiligo lesion (FIG. 1B) ([1]; two applications of 1.0% solution at alternate days, topical PUVA therapy): Erythematous photo toxic reaction

C=CC[C@@H]1/C=C(\C)C[C@H](C)C[C@H](OC)[C@H]2O[C@@](O)(C(=O)C(=O)N3CCCC[C@H]3C(=O)O[C@H](/C(C)=C/[C@@H]3CC[C@@H](O)[C@H](OC)C3)[C@H](C)[C@@H](O)CC1=O)[C@H](C)C[C@@H]2OC [tacrolimus]
Repigmenting potential (vitiligo): little or no repigmenting potential
